In paper PMC10793102 (Acta Pharmaceutica Sinica. B, 2023):
Like-named read-outs stand apart in the source and are kept apart here.

What was measured:
FADD−/− Jurkat = test: Cell viability assay, protection from necroptosis in FADD−/− Jurkat cells; type: cell-based; settings: Homo sapiens, 16 h
L929 = test: Cell viability assay, protection from necroptosis in L929 cells; type: cell-based, mouse; settings: for EC50: Mus musculus, L929, 16 h
PK study in mice = type: in vivo; settings: male, ICR, mouse, plasma
[1] = read-out: EC50 FADD−/− Jurkat T + S
[2] = read-out: EC50 FADD−/− Jurkat TNFα

## CN1CCN(CCNC(=O)c2ccc3c(c2)ncn3-c2ccc(CNC(=O)c3cnn(C)c3Cc3ccccc3)cc2)CC1 [compound 31]
FADD−/− Jurkat; [1]
  EC50: 0.6 nM
FADD−/− Jurkat; [2]
  EC50: 0.01 nM
L929; read-out: EC50 L929 T + S
  EC50: > 10000 nM
L929; read-out: EC50 L929 TNFα
  EC50: 5630 nM

## CNC(=O)c1ccc2c(c1)ncn2-c1ccc(CNC(=O)c2cn(Cc3ccccc3)nn2)cc1 [compound 24]
FADD−/− Jurkat; [1]
  EC50: 1590 nM
FADD−/− Jurkat; [2]
  EC50: 233 nM

## COc1cc2ncn(-c3ccc(CNC(=O)c4cnn(C)c4Cc4ccccc4)cc3)c2cc1OC [compound 33]
FADD−/− Jurkat; [1]
  EC50: 0.1 nM
FADD−/− Jurkat; [2]
  EC50: 0.02 nM
L929; read-out: EC50 L929 T + S
  EC50: 0.4 nM
L929; read-out: EC50 L929 TNFα
  EC50: 0.06 nM

## CCN1CCN(Cc2ccc(NC(=O)c3ccc(-n4cnc5cc(C(=O)NC)ccc54)cc3)cc2C(F)(F)F)CC1 [compound 13]
L929; TNFα 40 ng/mL, 15 h, Fig. 2A
  protective effects against cell death of L929 cells induced by TNFα: relatively weaker

## Cn1nc(C(=O)NCc2ccc(-n3ncc4c(N)ncnc43)cc2)cc1Cc1ccccc1 [compound 44]
FADD−/− Jurkat; [1]
  EC50: 451 nM
FADD−/− Jurkat; [2]
  EC50: 71 nM

## Cn1ncc(C(=O)NCc2ccc(-n3ccc4c(N)ncnc43)cc2)c1Cc1ccccc1 [compound 42]
FADD−/− Jurkat; [1]
  EC50: 8 nM
FADD−/− Jurkat; [2]
  EC50: 4.2 nM
L929; read-out: EC50 L929 T + S
  EC50: 0.9 nM
L929; read-out: EC50 L929 TNFα
  EC50: 0.1 nM

## CNC(=O)c1ccc2c(ccn2-c2ccc(CNC(=O)c3cc(Cc4ccccc4)n(C)n3)cc2)c1 [compound 28]
FADD−/− Jurkat; [1]
  EC50: > 10000 nM
FADD−/− Jurkat; [2]
  EC50: > 10000 nM
L929; read-out: EC50 L929 T + S
  EC50: > 10000 nM
L929; read-out: EC50 L929 TNFα
  EC50: > 10000 nM

## Cn1ncc(C(=O)NCc2ccc(-n3ncc4c(N)ncnc43)cc2)c1Cc1ccccc1 [compound 41]
FADD−/− Jurkat; [1]
  EC50: 6.9 nM
FADD−/− Jurkat; [2]
  EC50: 0.4 nM
L929; read-out: EC50 L929 T + S
  EC50: 23 nM
L929; read-out: EC50 L929 TNFα
  EC50: 9.9 nM

## Cn1ncc(C(=O)NCc2ccc(-n3cnc4c(N)nccc43)cc2)c1Cc1ccccc1 [compound 40]
FADD−/− Jurkat; [1]
  EC50: 2.3 nM
FADD−/− Jurkat; [2]
  EC50: 0.3 nM
L929; read-out: EC50 L929 T + S
  EC50: 6.3 nM
L929; read-out: EC50 L929 TNFα
  EC50: 1.2 nM

## Nc1ncnc2c1ncn2-c1ccc(CNC(=O)c2ccc(F)n2Cc2ccccc2)cc1 [compound 51]
FADD−/− Jurkat; [1]
  EC50: 1.6 nM
FADD−/− Jurkat; [2]
  EC50: 0.1 nM
L929; read-out: EC50 L929 T + S
  EC50: 74 nM
L929; read-out: EC50 L929 TNFα
  EC50: 0.9 nM

## Cn1nc(Cl)c(C(=O)NCc2ccc(-n3cnc4c(N)ncnc43)cc2)c1Cc1ccccc1 [compound 48, N-(4-(6-Amino-9H-purin-9-yl)benzyl)-5-benzyl-3-chloro-1-methyl-1H-pyrazole-4-carboxamide]
PK study in mice; iv, 1 mg/kg
  AUC(0-inf): 1310 ng·h/mL
  AUC(0-t): 1300 ng·h/mL
  MRT inf: 1.97 h
  Vd: 1.55 L/kg
  clearance: 13.3 mL/min/kg
  half-life: 0.81 h
PK study in mice; po, 10 mg/kg
  AUC(0-inf): 8400 ng·h/mL
  AUC(0-t): 8280 ng·h/mL
  Cmax: 3050 ng/mL
  MRT inf: 4.05 h
  Tmax: 0.42 h
  bioavailability: 63.9%
  half-life: 1.39 h
FADD−/− Jurkat; [1]
  EC50: 0.7 nM
FADD−/− Jurkat; [2]
  EC50: 0.2 nM
L929; read-out: EC50 L929 T + S
  EC50: 4.6 nM
L929; read-out: EC50 L929 TNFα
  EC50: 0.5 nM

## COc1ccc2c(c1)ncn2-c1ccc(CNC(=O)c2cnn(C)c2Cc2ccccc2)cc1 [compound 34]
FADD−/− Jurkat; [1]
  EC50: 0.1 nM
FADD−/− Jurkat; [2]
  EC50: 0.002 nM
L929; read-out: EC50 L929 T + S
  EC50: 0.08 nM
L929; read-out: EC50 L929 TNFα
  EC50: 0.005 nM

## COc1ccc2ncn(-c3ccc(CNC(=O)c4cnn(C)c4Cc4ccccc4)cc3)c2c1 [compound 35]
FADD−/− Jurkat; [1]
  EC50: 0.6 nM
FADD−/− Jurkat; [2]
  EC50: 0.01 nM
L929; read-out: EC50 L929 T + S
  EC50: 0.4 nM
L929; read-out: EC50 L929 TNFα
  EC50: 0.03 nM

## Cn1ncc(C(=O)NC(C)(C)c2ccc(-n3cnc4c(N)ncnc43)cc2)c1Cc1ccccc1 [compound 56]
FADD−/− Jurkat; [1]
  EC50: 28 nM
FADD−/− Jurkat; [2]
  EC50: 7.5 nM
L929; read-out: EC50 L929 TNFα
  EC50: 550 nM

## Cn1ncc(C(=O)NCc2ccc(-n3cnc4cc(C(=O)NCCN5CCOCC5)ccc43)cc2)c1Cc1ccccc1 [compound 32]
FADD−/− Jurkat; [1]
  EC50: 3 nM
FADD−/− Jurkat; [2]
  EC50: 0.5 nM
L929; read-out: EC50 L929 T + S
  EC50: 190 nM
L929; read-out: EC50 L929 TNFα
  EC50: 32 nM

## CNC(=O)c1ccc2c(c1)ncn2-c1ccc(CNC(=O)c2nnn(Cc3ccccc3)n2)cc1 [compound 25]
FADD−/− Jurkat; [1]
  EC50: 150 nM
FADD−/− Jurkat; [2]
  EC50: 24 nM

## Cn1nc(C(=O)NCc2ccc(-n3ccc4c(N)ncnc43)cc2)cc1Cc1ccccc1 [compound 45]
FADD−/− Jurkat; [1]
  EC50: 980 nM
FADD−/− Jurkat; [2]
  EC50: 137 nM
L929; read-out: EC50 L929 TNFα
  EC50: 2890 nM

## CNC(=O)c1ccc2ncn(-c3ccc(CNC(=O)c4cc(Cc5ccccc5)nn4C)cc3)c2c1 [compound 21]
FADD−/− Jurkat; [1]
  EC50: > 10000 nM
FADD−/− Jurkat; [2]
  EC50: > 10000 nM
L929; read-out: EC50 L929 T + S
  EC50: > 10000 nM
L929; read-out: EC50 L929 TNFα
  EC50: > 10000 nM

## Cn1nc2c(c1Cc1ccccc1)C(=O)N(Cc1ccc(-n3cnc4c(N)ncnc43)cc1)C2 [compound 60]
FADD−/− Jurkat; [1]
  EC50: 2.9 nM
FADD−/− Jurkat; [2]
  EC50: 0.05 nM
L929; read-out: EC50 L929 T + S
  EC50: 116 nM
L929; read-out: EC50 L929 TNFα
  EC50: 4.8 nM

## N#Cc1ccc(C(=O)NCc2ccc(-n3cnc4c(N)ncnc43)cc2)n1Cc1ccccc1 [compound 53]
FADD−/− Jurkat; [1]
  EC50: 1860 nM
FADD−/− Jurkat; [2]
  EC50: 214 nM

## CNC(=O)c1ccc2c(c1)ncn2-c1ccc(CNC(=O)c2n[nH]c(Cc3ccccc3)n2)cc1 [compound 15]
FADD−/− Jurkat; [2]
  EC50: > 10000 nM

## Cn1nc(C(=O)NCc2ccc(-n3cnc4c(N)ncnc43)cc2)cc1Cc1ccccc1 [compound 43]
FADD−/− Jurkat; [1]
  EC50: 0.3 nM
FADD−/− Jurkat; [2]
  EC50: 0.06 nM
L929; read-out: EC50 L929 T + S
  EC50: 384 nM
L929; read-out: EC50 L929 TNFα
  EC50: 25 nM
